Test systems include MCF7; PC-3; SN12C; SK-OV-3; TK-10; SW-620; MDA-MB-231; ACHN; SR; UO-31; M14; KM12; SF-295; MDA-MB-435; K562; UACC-257; NCI-H522; SK-MEL-28; HCC 2998; A549.
Common to all, as to assay: growth of human tumour cells (NCI), 48 h

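The compound was tested at five concentrations on cells cultured in 96-well plates, with a 48-hour exposure period. GI50 is the concentration that inhibits growth by half.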 Active and inactive are the calls of the source. Rule as the data show it: active = GI50 up to about 1.1 µM and inactive = higher. A value given as a limit tells only on which side of the number the result lay.

Turning to `COC(=O)C1=COc2c(n(C)c3ccccc23)-c2ccccc21`, the GI50 with MCF7, in the assay on PC-3, in the assay with SN12C, in the assay on SK-OV-3, in the assay with TK-10 and with SW-620 was > 100 µM (inactive) each time. Besides, the GI50 with MDA-MB-231 was > 100 µM (inactive); in the assay with ACHN, 74 µM (inactive); in the assay on SR, 4.21 µM (inactive); in the assay with UO-31, > 100 µM (inactive); in the assay on M14, > 100 µM (inactive); in the assay with KM12, > 100 µM (inactive). Besides, the GI50 in the assay on SF-295, with MDA-MB-435, in the assay with K562 and with UACC-257 was > 100 µM (inactive) throughout.
In the case of `COc1cccc(OCC(=N/NC(=O)c2ccncc2)/N=C/c2cccnc2)c1`, the GI50 in the assay on MCF7, with PC-3, with SK-OV-3, in the assay on NCI-H522, in the assay on SK-MEL-28 and in the assay on TK-10 was > 100 µM (inactive) in each case. The GI50 in the assay with SW-620, with MDA-MB-231, in the assay with ACHN, with M14, in the assay with KM12 and in the assay on SF-295 was > 100 µM (inactive) in each case. For the same molecule, the GI50 in the assay with MDA-MB-435, with K562, with UACC-257, in the assay with HCC 2998 and with A549 was > 100 µM (inactive) throughout.
In the case of `Cc1nnc2n1-c1ccccc1-c1[nH]c3ccccc3c1C2`, the GI50 in the assay with MCF7 is > 100 µM (inactive); in the assay on PC-3, 46.1 µM (inactive); with SN12C it was > 100 µM (inactive); in the assay with SK-OV-3, > 100 µM (inactive); in the assay with SK-MEL-28 it was 73.5 µM (inactive); in the assay with TK-10 it was > 100 µM (inactive). In addition, the GI50 with SW-620 is > 100 µM (inactive); in the assay with MDA-MB-231, 58.5 µM (inactive); in the assay with ACHN it was 39.9 µM (inactive); in the assay on SR, 22.8 µM (inactive); in the assay on UO-31, 28.8 µM (inactive); with M14, 43.1 µM (inactive). In addition, the GI50 in the assay on KM12 is 94.4 µM (inactive); with SF-295 it was 56.1 µM (inactive); in the assay on MDA-MB-435, 60.1 µM (inactive); with K562, 24.2 µM (inactive); in the assay with UACC-257 it was 59.8 µM (inactive); with A549 it was 91 µM (inactive).
`Cc1nc2c(=S)n(C)ncc2[nH]1`: the GI50 in the assay on MCF7 is > 100 µM (inactive); in the assay on PC-3, > 100 µM (inactive); with SN12C, > 100 µM (inactive); in the assay on SK-OV-3 it was > 100 µM (inactive); in the assay on NCI-H522, 34 µM (inactive); in the assay with SK-MEL-28, > 100 µM (inactive). The GI50 in the assay on TK-10, in the assay on SW-620, in the assay with MDA-MB-231, in the assay with ACHN, with UO-31 and in the assay with M14 was > 100 µM (inactive) in each case. Moreover, the GI50 with KM12, with SF-295, in the assay on MDA-MB-435, in the assay with K562, in the assay with UACC-257 and in the assay on HCC 2998 was > 100 µM (inactive) each time. Moreover, in the assay with A549, the GI50 is > 100 µM (inactive).
Consider `Nc1ncnc2ccc(Sc3ccc4ncnc(N)c4c3)cc12`, for which the GI50 in the assay on MCF7, with PC-3, in the assay on SN12C, in the assay on SK-OV-3, in the assay on SK-MEL-28 and in the assay with TK-10 was > 100 µM (inactive) throughout. Moreover, the GI50 in the assay with SW-620, in the assay with MDA-MB-231, with ACHN, in the assay with SR, in the assay with UO-31 and with M14 was > 100 µM (inactive) in each case. The GI50 in the assay on KM12, in the assay with SF-295, in the assay on MDA-MB-435, with K562, in the assay with UACC-257 and with A549 was > 100 µM (inactive) in each case.
As for `C[C@]12CC[C@@H]3c4ccc(O)cc4CC[C@H]3[C@@H]1CC[C@@H]2OC(=O)CCc1ccccc1`, the GI50 in the assay on MCF7 was 17.5 µM (inactive); with PC-3, 18.3 µM (inactive); with SN12C, 22.9 µM (inactive); in the assay on SK-OV-3, 15.5 µM (inactive); in the assay on NCI-H522, 15.3 µM (inactive); with SK-MEL-28, 20.1 µM (inactive). The GI50 is 18.5 µM (inactive) in the assay on TK-10; 23.3 µM (inactive) in the assay on SW-620; 17.1 µM (inactive) with MDA-MB-231; 18.7 µM (inactive) in the assay with ACHN; 16 µM (inactive) in the assay with UO-31; 17.6 µM (inactive) in the assay on M14. Also, the GI50 in the assay on KM12 is 27.7 µM (inactive); in the assay with SF-295, 19.3 µM (inactive); in the assay with MDA-MB-435, 13.1 µM (inactive); in the assay with K562, 11 µM (inactive); in the assay on UACC-257, 17.9 µM (inactive); in the assay with HCC 2998, 19.6 µM (inactive). Besides, the GI50 in the assay on A549 was 22.3 µM (inactive).
Regarding `C[C@]12C(=O)OC[C@H](c3ccccc3)N1C(=O)N(Cc1ccccc1)[C@@H]2CO`, the GI50 with MCF7, in the assay with PC-3, in the assay on SN12C, in the assay with SK-OV-3, in the assay on SK-MEL-28 and in the assay with TK-10 was > 100 µM (inactive) each time. Moreover, the GI50 in the assay on SW-620, in the assay with MDA-MB-231, in the assay on ACHN, with SR, in the assay with UO-31 and in the assay with M14 was > 100 µM (inactive) each time. The GI50 in the assay with KM12, with SF-295, in the assay with MDA-MB-435, in the assay on K562, with UACC-257 and in the assay with HCC 2998 was > 100 µM (inactive) in each case. For the same molecule, in the assay with A549, the GI50 is > 100 µM (inactive).
Consider `S=C(/N=c1\sc(NCc2ccccc2)nc2sc3c(c12)CCN(N1CCc2c(sc4nc(NCc5ccccc5)s/c(=N\C(=S)NCc5ccccc5)c24)C1)C3)NCc1ccccc1`, for which the GI50 is 15.8 µM (inactive) with MCF7; 17 µM (inactive) in the assay on PC-3; 16.2 µM (inactive) in the assay with SN12C; 53.2 µM (inactive) in the assay with SK-OV-3; 37.7 µM (inactive) in the assay on NCI-H522; 63.4 µM (inactive) in the assay with SK-MEL-28. For the same molecule, the GI50 in the assay with TK-10 is 48.9 µM (inactive); in the assay with SW-620, 22.3 µM (inactive); with MDA-MB-231, 8.32 µM (inactive); in the assay with ACHN, 29.1 µM (inactive); in the assay on UO-31, 15.4 µM (inactive); in the assay with M14 it was 42.9 µM (inactive). Further, the GI50 in the assay on KM12 is 38 µM (inactive); with SF-295 it was 59.3 µM (inactive); in the assay on MDA-MB-435 it was 42.9 µM (inactive); in the assay on K562 it was 17.4 µM (inactive); in the assay with UACC-257 it was 21.5 µM (inactive); with HCC 2998 it was 44.7 µM (inactive). Moreover, the GI50 in the assay with A549 is 27.4 µM (inactive).
As to `CC(C)NCCC(O)c1cc2ccccc2o1` (stereo not given), the GI50 in the assay on MCF7 is > 100 µM (inactive); in the assay with PC-3, > 100 µM (inactive); in the assay on SN12C it was 30.1 µM (inactive); with SK-OV-3 it was > 100 µM (inactive); in the assay with NCI-H522, > 100 µM (inactive); in the assay on SK-MEL-28, > 100 µM (inactive). Moreover, the GI50 in the assay on TK-10, in the assay on SW-620, in the assay with MDA-MB-231, with ACHN, in the assay with UO-31 and in the assay with M14 was > 100 µM (inactive) in each case. In addition, the GI50 is > 100 µM (inactive) in the assay on KM12; > 100 µM (inactive) in the assay on SF-295; > 100 µM (inactive) in the assay with MDA-MB-435; 1.06 µM (active) with K562; > 100 µM (inactive) in the assay on UACC-257; > 100 µM (inactive) with A549.
As for `COc1ccccc1C(=O)N(Cc1ccccc1)c1ccc(Cl)c(C(=O)OC(C)C)c1`, the GI50 is 47.8 µM (inactive) with MCF7; 7.53 µM (inactive) in the assay with PC-3; 27.6 µM (inactive) with SN12C; 25.4 µM (inactive) with SK-OV-3; 5.93 µM (inactive) in the assay on NCI-H522; 41.7 µM (inactive) in the assay with SK-MEL-28. Besides, the GI50 in the assay with TK-10 was 26.8 µM (inactive); in the assay with SW-620 it was 31.8 µM (inactive); with MDA-MB-231 it was 25.9 µM (inactive); in the assay on ACHN, 25 µM (inactive); in the assay on UO-31 it was 7.71 µM (inactive); in the assay with M14, 20.7 µM (inactive). In addition, the GI50 with KM12 was 21.2 µM (inactive); with SF-295 it was 14.3 µM (inactive); in the assay with MDA-MB-435 it was 27 µM (inactive); in the assay on K562 it was 6.89 µM (inactive); with UACC-257, 14.6 µM (inactive); in the assay with HCC 2998, 18.2 µM (inactive). For the same molecule, in the assay with A549, the GI50 is 19.4 µM (inactive).
Turning to `O=C(OCCN=C1c2ccccc2CCc2ccccc21)c1cc([N+](=O)[O-])cc([N+](=O)[O-])c1`, the GI50 with MCF7 was > 31.6 µM (inactive); in the assay on PC-3, > 31.6 µM (inactive); in the assay on SN12C it was > 31.6 µM (inactive); in the assay with SK-OV-3 it was > 100 µM (inactive); with SK-MEL-28, > 31.6 µM (inactive); with TK-10 it was > 31.6 µM (inactive). Also, the GI50 in the assay on SW-620 was > 31.6 µM (inactive); in the assay with MDA-MB-231, > 31.6 µM (inactive); in the assay on ACHN, > 31.6 µM (inactive); with SR, 3.52 µM (inactive); in the assay on UO-31 it was 21.9 µM (inactive); with M14, > 31.6 µM (inactive). The GI50 in the assay with KM12 is 28.1 µM (inactive); in the assay on SF-295, 23.6 µM (inactive); in the assay on MDA-MB-435, > 31.6 µM (inactive); in the assay with K562 it was 20.7 µM (inactive); with UACC-257 it was > 31.6 µM (inactive); in the assay with A549, 26.7 µM (inactive).

Values taken from ChEMBL document CHEMBL1201862, “PubChem BioAssay data set” (2004).
